Assay results reported in the NIST ThermoML archive (doi:10.1016/j.jct.2006.06.008).

Assays:
[1] = 101 kPa, Liquid
[2] = xn = mol fraction of the nth substance listed; conditions: 101 kPa, Liquid

CCCCO [butan-1-ol]
[1]
Conditions	mass density [kg/m3]	speed of sound [m/s]	viscosity [mPa·s]
293.15 K	809.5	1257	2.941
298.15 K	805.75	1240	2.571
303.15 K	801.8	1224	2.255

C1CCCCC1 [cyclohexane]
[1]
Conditions	mass density [kg/m3]	speed of sound [m/s]	viscosity [mPa·s]
293.15 K	778.62	1279	0.968
298.15 K	773.92	1254	0.887
303.15 K	769.19	1230	0.816

C1CCCC1 [cyclopentane]
[1]
Conditions	mass density [kg/m3]	speed of sound [m/s]	viscosity [mPa·s]
293.15 K	744.52	1232	0.439
298.15 K	739.55	1206	0.416
303.15 K	734.54	1180	0.394

C1CCCC1 [cyclopentane] + CCCO
[2]
Conditions	mass density, 293.15 K [kg/m3]	mass density, 298.15 K [kg/m3]	mass density, 303.15 K [kg/m3]	speed of sound, 293.15 K [m/s]	speed of sound, 298.15 K [m/s]	speed of sound, 303.15 K [m/s]	viscosity, 293.15 K [mPa·s]	viscosity, 298.15 K [mPa·s]	viscosity, 303.15 K [mPa·s]
x1 = 0.0461	800.15	796.09	791.98	1219	1202	1184	2.035	1.809	1.613
x1 = 0.09	796.74	792.61	788.44	1216	1198	1180	1.859	1.655	1.479
x1 = 0.1885	789.64	785.36	781.04	1209	1190	1171	1.571	1.406	1.275
x1 = 0.2951	782.12	777.69	773.21	1204	1183	1163	1.284	1.159	1.052
x1 = 0.4056	774.79	770.22	765.59	1200	1178	1157	1.057	0.961	0.875
x1 = 0.5051	768.67	763.96	759.2	1199	1176	1153	0.867	0.79	0.725
x1 = 0.61	762.67	757.84	752.96	1199	1175	1152	0.712	0.656	0.608
x1 = 0.7109	757.16	752.26	747.29	1200	1176	1152	0.594	0.553	0.514
x1 = 0.8225	751.67	746.7	741.66	1206	1181	1156	0.507	0.476	0.448
x1 = 0.9134	747.4	742.5	737.43	1214	1188	1163	0.46	0.434	0.41
x1 = 0.9532	745.94	740.91	735.84	1219	1193	1168	0.447	0.422	0.4
x1 = 1	744.52	739.55	734.54	1232	1206	1180	0.439	0.416	0.394

C1CCCC1 [cyclopentane] + CCO
[2]
Conditions	mass density, 293.15 K [kg/m3]	mass density, 298.15 K [kg/m3]	mass density, 303.15 K [kg/m3]	speed of sound, 293.15 K [m/s]	speed of sound, 298.15 K [m/s]	speed of sound, 303.15 K [m/s]	viscosity, 293.15 K [mPa·s]	viscosity, 298.15 K [mPa·s]	viscosity, 303.15 K [mPa·s]
x1 = 0.0488	784.97	780.62	776.23	1157	1139	1122	1.148	1.047	0.956
x1 = 0.1011	780.67	776.25	771.78	1155	1137	1118	1.07	0.977	0.896
x1 = 0.1932	774.13	769.58	764.99	1154	1135	1116	0.955	0.875	0.806
x1 = 0.2926	768.22	763.55	758.83	1157	1136	1116	0.822	0.756	0.696
x1 = 0.3897	763.12	758.34	753.5	1162	1140	1118	0.735	0.679	0.628
x1 = 0.489	758.81	753.94	749.01	1168	1146	1123	0.659	0.609	0.564
x1 = 0.5973	754.7	749.75	744.74	1177	1153	1130	0.582	0.54	0.502
x1 = 0.7012	751.29	746.28	741.2	1186	1162	1137	0.521	0.487	0.456
x1 = 0.7992	748.53	743.48	738.38	1196	1171	1146	0.475	0.446	0.42
x1 = 0.8886	746.41	741.36	736.25	1208	1182	1156	0.448	0.423	0.4
x1 = 0.9495	745.36	740.33	735.23	1217	1192	1166	0.44	0.417	0.394
x1 = 1	744.52	739.55	734.54	1232	1206	1180	0.439	0.416	0.394

CCO [ethanol]
[1]
Conditions	mass density [kg/m3]	speed of sound [m/s]	viscosity [mPa·s]
293.15 K	789.75	1162	1.187
298.15 K	785.46	1145	1.082
303.15 K	781.15	1128	0.987

CCO [ethanol] + C1CCCC1
[2], x2 = 0
Conditions	mass density [kg/m3]	speed of sound [m/s]	viscosity [mPa·s]
293.15 K	789.75	1162	1.187
298.15 K	785.46	1145	1.082
303.15 K	781.15	1128	0.987

CCO [ethanol] + C1CCCCC1
[2], x2 = 0
Conditions	mass density [kg/m3]	speed of sound [m/s]	viscosity [mPa·s]
293.15 K	789.75	1162	1.187
298.15 K	785.46	1145	1.082
303.15 K	781.15	1128	0.987

CCCO [propan-1-ol]
[1]
Conditions	mass density [kg/m3]	speed of sound [m/s]	viscosity [mPa·s]
293.15 K	803.59	1223	2.159
298.15 K	799.58	1206	1.915
303.15 K	795.55	1189	1.713

CCCO [propan-1-ol] + C1CCCC1
[2], x2 = 0
Conditions	mass density [kg/m3]	speed of sound [m/s]	viscosity [mPa·s]
293.15 K	803.59	1223	2.159
298.15 K	799.58	1206	1.915
303.15 K	795.55	1189	1.713

CCCO [propan-1-ol] + C1CCCCC1
[2], x2 = 0
Conditions	mass density [kg/m3]	speed of sound [m/s]	viscosity [mPa·s]
293.15 K	803.59	1223	2.159
298.15 K	799.58	1206	1.915
303.15 K	795.55	1189	1.713
